For orientation: Ki means the dissociation constant of the complex between target and ligand, obtained from inhibition or displacement.

T1 sequence (Q9Y5N1 whole entry): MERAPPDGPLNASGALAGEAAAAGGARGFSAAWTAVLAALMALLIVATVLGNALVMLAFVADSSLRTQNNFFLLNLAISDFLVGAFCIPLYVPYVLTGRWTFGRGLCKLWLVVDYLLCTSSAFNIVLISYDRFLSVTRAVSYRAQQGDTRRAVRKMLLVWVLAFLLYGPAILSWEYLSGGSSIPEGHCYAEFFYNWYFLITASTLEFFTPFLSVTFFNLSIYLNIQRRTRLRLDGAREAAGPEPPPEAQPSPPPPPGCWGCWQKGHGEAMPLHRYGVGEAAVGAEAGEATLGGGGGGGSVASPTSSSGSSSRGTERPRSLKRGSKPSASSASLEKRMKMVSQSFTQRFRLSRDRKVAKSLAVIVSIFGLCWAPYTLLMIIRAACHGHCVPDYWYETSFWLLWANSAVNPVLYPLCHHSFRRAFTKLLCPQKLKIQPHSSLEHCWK

The assay has as its target T1, histamine 3 receptor (H3R) (Homo sapiens, UniProt Q9Y5N1).
T1 construct: expressed in transfected cells; host or cells: CHO cells (HR3-CHO cell line), membrane preparation
As to the kind of experiment: Competition binding assay with 3H-(R)α-methylhistamine on membranes of the human HR3-CHO cell line. To be noted: 3H(R)α-methylhistamine 1 nM, Ki calculated from IC50 by Cheng-Prusoff equation. The method, then: Binding assay with ^3H-(R)α-methylhistamine
Saturation binding experiments were performed using HR3-CHO membranes prepared as described in Takahashi, K, Tokita, S., Kotani, H. (2003) J. Pharmacol. Exp. Therapeutics 307, 213-218.
An appropriate amount of membrane (60 to 80 μg protein/well) was incubated with increasing concentrations of ^3H(R)α-Methylhistamine di-hydrochloride (0.10 to 10 nM). Non-specific binding was determined using a […] excess of cold (R)α-methylhistamine dihydrobromide (500 nM final concentration). The incubation was carried out at room temperature (in deep-well plates shaking for three hours). The final volume in each well was 250 μl. The incubation was followed by rapid filtration on GF/B filters (pre-soaked with 100 μl of 0.5% PEI in Tris 50 mM shaking at 200 rpm for two hours). The filtration was made using a cell-harvester and the filter plates were then washed five times with ice cold washing buffer containing 0.5 M NaCl. After harvesting, the plates were dried at 55° C. for 60 min, then scintillation fluid (Microscint 40, 40 microl in each well) was added and the amount of radioactivity on the filter was determined with a Packard top-counter after shaking the plates for two hours at 200 rpm at room temperature.
Binding Buffer: 50 mM Tris-HCl pH 7.4 and 5 mM MgCl2x6H2O pH 7.4. Washing Buffer: 50 mM Tris-HCl pH 7.4 and 5 mM MgCl2x6H2O and 0.5 M NaCl pH 7.4.
Indirect measurement of affinity of H3R inverse agonists: twelve increasing concentrations (ranging from 10 μM to 0.3 nM) of the selected compounds were always tested in competition binding experiments using membrane of the human HR3-CHO cell line. An appropriate amount of protein, e.g. approximately 500 cpm binding of RAMH at Kd, were incubated for 1 hour at room temperature in 250 μl final volume in 96-well plates in presence of ^3H(R)α-methylhistamine (1 nM final concentration=Kd). […]
All compounds were tested at a single concentration in duplicates. […] Ki's were calculated from IC50 based on Cheng-Prusoff equation (Cheng, Y, Prusoff, W H (1973) Biochem Pharmacol 22, 3099-3108).
Consider `CC(C)N1CCOC(COc2ccc3c(c2)cc(C(=O)N2CCOCC2)n3CC(F)(F)F)C1` (stereo not drawn) [Example 1, [5-(4-Isoopropyl-morpholin-2-ylmethoxy)-1-(2,2,2-trifluoro-ethyl)-1H-indol-2-yl]-morpholin-4-yl-methanone], for which the Ki is 0.03 µM.

With `O=C(c1cc2cc(OCCCN3CC4CC4C3)ccc2[nH]1)N1CCOCC1` (stereo not drawn) [Example 5, {5-[3-(3-Aza-bicyclo[3.1.0]hex-3-yl)-propoxy]-1H-indol-2-yl}-morpholin-4-yl-methanone], the Ki is 0.04 µM.

Regarding `O=C(c1cc2cc(OCCCN3CC4CC4C3)ccc2n1CC(F)(F)F)N1CCOCC1` (stereo not drawn) [Example 6, [5-[3-(3-Aza-bicyclo[3.1.0]hex-3-yl)-propoxy]-1-(2,2,2-trifluoro-ethyl)-1H-indol-2-yl]-morpholin-4-yl-methanone], the Ki is 0.026 µM.

(Values after patent US7388095B2, “5-substituted indole-2-carboxamide derivatives” (Hoffmann-La Roche Inc., priority 2005, dated 2008).)
